From publication PMC4076017 (ACS Chemical Biology, 2014)
Values joined by “and” are separate entries in the source; they are usually repeats but may differ in a detail not shown here. Identical values can stand only once.

Tests used:
BaDHPS [1] = biological target: T1, BaDHPS (Bacillus anthracis, UniProt Q81VW8); experiment: biochemical
YpDHPS [2] = biological target: T2, YpDHPS (Yersinia pestis, UniProt A0A2S9PLG4); experiment: biochemical
SaDHPS [3] = biological target: T3, SaDHPS (Staphylococcus aureus, UniProt O05701); experiment: DHPS enzyme inhibition assay; format: biochemical
BaDHPS [4] = biological target: T1, BaDHPS; experiment: biochemical; format: binding
BaDHPS [5] = biological target: T1, BaDHPS; format: biochemical
YpDHPS [6] = biological target: T2, YpDHPS; format: biochemical
SaDHPS [7] = biological target: T3, SaDHPS; experiment: Michaelis-Menten kinetics in the presence of compound 11; format: biochemical; conditions: pABA 0 to 10 μM
Antimicrobial activity = format: cell-based
Aqueous solubility = format: physicochemical
[8] = LC-MS stability in conditions that recapitulate the crystallization conditions; format: physicochemical; conditions: conditions that recapitulate the crystallization conditions (pH and time)

T2 sequence (A0A2S9PLG4 1-277): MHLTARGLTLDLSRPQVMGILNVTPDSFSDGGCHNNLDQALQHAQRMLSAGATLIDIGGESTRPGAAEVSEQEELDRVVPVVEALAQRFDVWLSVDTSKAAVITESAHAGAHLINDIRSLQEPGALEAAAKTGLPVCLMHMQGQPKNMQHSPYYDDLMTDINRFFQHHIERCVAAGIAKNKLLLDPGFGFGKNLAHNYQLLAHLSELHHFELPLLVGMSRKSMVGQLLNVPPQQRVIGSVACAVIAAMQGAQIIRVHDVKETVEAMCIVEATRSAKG
T1 sequence (Q81VW8 1-280): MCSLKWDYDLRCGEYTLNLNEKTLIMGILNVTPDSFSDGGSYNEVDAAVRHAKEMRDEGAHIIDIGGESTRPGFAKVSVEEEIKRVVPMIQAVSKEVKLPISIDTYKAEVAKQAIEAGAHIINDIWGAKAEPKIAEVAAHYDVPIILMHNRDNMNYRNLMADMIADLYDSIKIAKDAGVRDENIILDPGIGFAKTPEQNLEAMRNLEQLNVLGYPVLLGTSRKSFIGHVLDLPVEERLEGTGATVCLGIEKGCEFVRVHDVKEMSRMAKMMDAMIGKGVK
T3 sequence (O05701 whole entry): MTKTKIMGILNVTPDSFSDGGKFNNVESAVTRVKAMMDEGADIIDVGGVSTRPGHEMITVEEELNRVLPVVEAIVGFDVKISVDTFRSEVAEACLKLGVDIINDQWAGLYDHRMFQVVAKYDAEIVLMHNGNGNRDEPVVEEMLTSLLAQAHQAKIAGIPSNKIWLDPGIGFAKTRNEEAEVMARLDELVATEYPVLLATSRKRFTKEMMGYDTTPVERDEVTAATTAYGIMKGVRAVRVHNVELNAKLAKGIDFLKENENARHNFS

FC(F)(F)c1ccc(/C=N/Cc2ccc(C(F)(F)F)cc2)cc1 [Compound 11, (E)-N-(4-(Trifluoromethyl)benzylidene)-1-(4-(trifluoromethyl)phenyl) Methanamine]
IC50 (BaDHPS [1]): 50 µM
inhibition at 250 µM (BaDHPS [1]; read-out: inhibition of BaDHPS): 100%
IC50 (YpDHPS [2]): 31 µM
inhibition at 250 µM (YpDHPS [2]; read-out: inhibition of YpDHPS): 100%
IC50 (SaDHPS [3]): 17 µM
inhibition at 250 µM (SaDHPS [3]; read-out: inhibition of SaDHPS): 100%
Kd (BaDHPS [4]): 130 ± 1 µM
increase in binding affinity of pABA to DHPS in the presence of 11 (BaDHPS [4]): 2 fold
Kmobs (BaDHPS [5]): 1.0 µM and 0.74 µM
Vmaxobs (BaDHPS [5]): 106.7 nM/min and 70.81 nM/min
Kmobs (YpDHPS [6]): 1.8 µM and 1.2 µM
Kmobs (SaDHPS [7]; 50 μM compd 11, DHPP 20 μM): 2.7 µM
Vmaxobs (SaDHPS [7]; 50 μM compd 11, DHPP 20 μM): 211.2 nM/min
Kmobs (SaDHPS [7]; 100 μM compd 11, DHPP 20 μM): 0.38 µM
Vmaxobs (SaDHPS [7]; 100 μM compd 11, DHPP 20 μM): 31.19 nM/min
antimicrobial activity (Antimicrobial activity): lacks antimicrobial activity
aqueous solubility (Aqueous solubility): limited aqueous solubility
stability by liquid chromatography-mass spectrometric analysis [8]: stable
